Measurements from PubChem BioAssay (NCI).
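All cell lines were grown in 96-well plates and treated with compound for 48 hours. Here, GI50 denotes the concentration required for 50% inhibition of growth. TGI is the concentration that stops growth completely.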

Columns and labels:
Experiment in all cases: inhibition of tumour cell growth, NCI panel, 48 h
786-0 renal = system: 786-0 renal
A498 renal = system: A498 renal
A549 NSCLC = system: A549 NSCLC
ACHN renal = system: ACHN renal
BT-549 breast = system: BT-549 breast
CAKI-1 renal = system: CAKI-1 renal
CCRF-CEM leukemia = system: CCRF-CEM leukemia
COLO 205 colon = system: COLO 205 colon
DU-145 prostate = system: DU-145 prostate
EKVX NSCLC = system: EKVX NSCLC
HCC-2998 colon = system: HCC-2998 colon
HCT-116 colon = system: HCT-116 colon
HCT-15 colon = system: HCT-15 colon
HL-60(TB) leukemia = system: HL-60(TB) leukemia
HOP-62 NSCLC = system: HOP-62 NSCLC
HOP-92 NSCLC = system: HOP-92 NSCLC
HS 578T breast = system: HS 578T breast
HT29 colon = system: HT29 colon
IGROV1 ovarian = system: IGROV1 ovarian
K-562 leukemia = system: K-562 leukemia
KM12 colon = system: KM12 colon
LOX IMVI melanoma = system: LOX IMVI melanoma
M14 melanoma = system: M14 melanoma
MALME-3M melanoma = system: MALME-3M melanoma
MCF7 breast = system: MCF7 breast
MDA-MB-231 breast = system: MDA-MB-231 breast
MDA-MB-435 = system: MDA-MB-435
MOLT-4 leukemia = system: MOLT-4 leukemia
NCI-H226 lung = system: NCI-H226 lung
NCI-H23 lung = system: NCI-H23 lung
NCI-H460 lung = system: NCI-H460 lung
NCI-H522 lung = system: NCI-H522 lung
NCI/ADR-RES ovarian = system: NCI/ADR-RES ovarian
OVCAR-3 ovarian = system: OVCAR-3 ovarian
OVCAR-4 ovarian = system: OVCAR-4 ovarian
OVCAR-5 ovarian = system: OVCAR-5 ovarian
OVCAR-8 ovarian = system: OVCAR-8 ovarian
PC-3 prostate = system: PC-3 prostate
RPMI-8226 leukemia = system: RPMI-8226 leukemia
RXF 393 renal = system: RXF 393 renal
SF-268 CNS = system: SF-268 CNS
SF-295 CNS = system: SF-295 CNS
SF-539 CNS = system: SF-539 CNS
SK-MEL-2 melanoma = system: SK-MEL-2 melanoma
SK-MEL-28 melanoma = system: SK-MEL-28 melanoma
SK-MEL-5 melanoma = system: SK-MEL-5 melanoma
SK-OV-3 ovarian = system: SK-OV-3 ovarian
SN12C renal = system: SN12C renal
SNB-19 CNS = system: SNB-19 CNS
SNB-75 CNS = system: SNB-75 CNS
SW-620 colon = system: SW-620 colon
T-47D breast = system: T-47D breast
TK-10 renal = system: TK-10 renal
U251 CNS = system: U251 CNS
UACC-257 melanoma = system: UACC-257 melanoma
UACC-62 melanoma = system: UACC-62 melanoma
UO-31 renal = system: UO-31 renal

CCn1c(-c2nonc2N)nc2c(N3CCCC3)nccc21
GI50 (786-0 renal): > 18.6 µM
TGI (786-0 renal): > 25 µM
GI50 (A498 renal): 8.39 µM
TGI (A498 renal): > 25 µM
GI50 (A549 NSCLC): 13.2 µM
TGI (A549 NSCLC): > 25 µM
GI50 (ACHN renal): 9.73 µM
TGI (ACHN renal): > 25 µM
GI50 (BT-549 breast): > 21.8 µM
TGI (BT-549 breast): > 25 µM
GI50 (CAKI-1 renal): 13.4 µM
TGI (CAKI-1 renal): > 25 µM
GI50 (CCRF-CEM leukemia): 18.4 µM
TGI (CCRF-CEM leukemia): > 25 µM
GI50 (COLO 205 colon): 11 µM
TGI (COLO 205 colon): > 25 µM
GI50 (DU-145 prostate): 14 µM
TGI (DU-145 prostate): > 25 µM
GI50 (EKVX NSCLC): > 25 µM
TGI (EKVX NSCLC): > 25 µM
GI50 (HCC-2998 colon): > 25 µM
TGI (HCC-2998 colon): > 25 µM
GI50 (HCT-116 colon): 8.47 µM
TGI (HCT-116 colon): > 25 µM
GI50 (HCT-15 colon): 11.2 µM
TGI (HCT-15 colon): > 25 µM
GI50 (HL-60(TB) leukemia): 24.9 µM
TGI (HL-60(TB) leukemia): > 25 µM
GI50 (HOP-62 NSCLC): 12.3 µM
TGI (HOP-62 NSCLC): > 25 µM
GI50 (HOP-92 NSCLC): 3.88 µM
TGI (HOP-92 NSCLC): 22.9 µM
GI50 (HS 578T breast): > 19.4 µM
TGI (HS 578T breast): > 25 µM
GI50 (HT29 colon): 7.97 µM
TGI (HT29 colon): > 25 µM
GI50 (IGROV1 ovarian): 12 µM
TGI (IGROV1 ovarian): > 25 µM
GI50 (K-562 leukemia): 10.3 µM
TGI (K-562 leukemia): > 25 µM
GI50 (KM12 colon): 15.7 µM
TGI (KM12 colon): > 25 µM
GI50 (LOX IMVI melanoma): 8.91 µM
TGI (LOX IMVI melanoma): > 25 µM
GI50 (M14 melanoma): 24.5 µM
TGI (M14 melanoma): > 25 µM
GI50 (MALME-3M melanoma): > 25 µM
TGI (MALME-3M melanoma): > 25 µM
GI50 (MCF7 breast): 5.27 µM
TGI (MCF7 breast): > 25 µM
GI50 (MDA-MB-231 breast): > 18.8 µM
TGI (MDA-MB-231 breast): > 25 µM
GI50 (MDA-MB-435): 12.2 µM
TGI (MDA-MB-435): > 25 µM
GI50 (MOLT-4 leukemia): 10.5 µM
TGI (MOLT-4 leukemia): > 25 µM
GI50 (NCI-H226 lung): 10 µM
TGI (NCI-H226 lung): > 25 µM
GI50 (NCI-H23 lung): 14.9 µM
TGI (NCI-H23 lung): > 25 µM
GI50 (NCI-H460 lung): 8.95 µM
TGI (NCI-H460 lung): > 25 µM
GI50 (NCI-H522 lung): 10.9 µM
TGI (NCI-H522 lung): > 25 µM
GI50 (NCI/ADR-RES ovarian): 10.7 µM
TGI (NCI/ADR-RES ovarian): > 25 µM
GI50 (OVCAR-3 ovarian): 14.7 µM
TGI (OVCAR-3 ovarian): > 25 µM
GI50 (OVCAR-4 ovarian): 10.3 µM
TGI (OVCAR-4 ovarian): > 25 µM
GI50 (OVCAR-5 ovarian): 12.5 µM
TGI (OVCAR-5 ovarian): > 25 µM
GI50 (OVCAR-8 ovarian): 9.88 µM
TGI (OVCAR-8 ovarian): > 25 µM
GI50 (PC-3 prostate): 14.4 µM
TGI (PC-3 prostate): > 25 µM
GI50 (RPMI-8226 leukemia): 16.5 µM
TGI (RPMI-8226 leukemia): > 25 µM
GI50 (RXF 393 renal): 9.63 µM
TGI (RXF 393 renal): > 25 µM
GI50 (SF-268 CNS): 13.3 µM
TGI (SF-268 CNS): > 25 µM
GI50 (SF-295 CNS): 9.27 µM
TGI (SF-295 CNS): > 25 µM
GI50 (SF-539 CNS): 10.8 µM
TGI (SF-539 CNS): > 25 µM
GI50 (SK-MEL-2 melanoma): > 25 µM
TGI (SK-MEL-2 melanoma): > 25 µM
GI50 (SK-MEL-28 melanoma): > 25 µM
TGI (SK-MEL-28 melanoma): > 25 µM
GI50 (SK-MEL-5 melanoma): 19 µM
TGI (SK-MEL-5 melanoma): > 25 µM
GI50 (SK-OV-3 ovarian): > 24 µM
TGI (SK-OV-3 ovarian): > 25 µM
GI50 (SN12C renal): 15 µM
TGI (SN12C renal): > 25 µM
GI50 (SNB-19 CNS): 19.4 µM
TGI (SNB-19 CNS): > 25 µM
GI50 (SNB-75 CNS): 10.3 µM
TGI (SNB-75 CNS): > 25 µM
GI50 (SW-620 colon): 8.07 µM
TGI (SW-620 colon): > 25 µM
GI50 (T-47D breast): 20.4 µM
TGI (T-47D breast): > 25 µM
GI50 (TK-10 renal): 9.31 µM
TGI (TK-10 renal): > 25 µM
GI50 (U251 CNS): 9.43 µM
TGI (U251 CNS): > 25 µM
GI50 (UACC-257 melanoma): > 22.4 µM
TGI (UACC-257 melanoma): > 25 µM
GI50 (UACC-62 melanoma): 16.2 µM
TGI (UACC-62 melanoma): > 25 µM
GI50 (UO-31 renal): 7.48 µM
TGI (UO-31 renal): > 25 µM
